Assay: physchem
Procedure: (§1) In this study, pure salicylic acid (SA) partitioning between cyclohexane and water versus salicylic acid partitioning between cyclohexane and water in SA Formulas A-D was investigated at pH 1 and at pH 7 simulating gastric fluids and duodenum fluids. The study was conducted by adding either SA, SA Formulas A-D into a cyclohexane/water partitioning system and measuring the differential partitioning of SA between the two phase as the value Log P.
as §1, with “naproxen (NAP)” for “salicylic acid (SA)”, “NAP” for “salicylic acid”, “NAP” for “SA”, “NAP, NAP” for “SA, SA”
as §1, with “indomethacin (INDO)” for “salicylic acid (SA)”, “INDO” for “salicylic acid”, “INDO” for “SA”, “INDO, INDO” for “SA, SA”
as §1, with “pure mefenamic” for “pure salicylic”, “acid (MFA)” for “acid (SA)”, “versus MFA” for “versus salicylic acid”, “in MFA” for “in SA”, “either MFA, MFA” for “either SA, SA”, “of MFA” for “of SA”

Row | SMILES | logD hydrocarbon water (pH 1) | logD hydrocarbon water (pH 7)
1 | COc1ccc2c(c1)c(CC(=O)O)c(C)n2C(=O)c1ccc(Cl)cc1 [INDO, indomethacin] | 1.05 | -1.81
2 | Cc1cccc(Nc2ccccc2C(=O)O)c1C [MFA, mefenamic acid] | 0 | 0.47
3 | O=C(O)c1ccccc1O [SA, salicylic acid] | -1.11 | 0
